Assay results: the supplement of paper PMC10307832

Assays:
Experiment in all cases: relative viability (nuclei count vs DMSO), 5 days (fraction); higher = more cells survive
[1] = compound: CCN(CCO)CCCC(C)Nc1ccnc2cc(Cl)ccc12 [Hydroxychloroquine] + C[C@@H](Oc1cc(-c2cnn(C3CCNCC3)c2)cnc1N)c1c(Cl)ccc(F)c1Cl [Crizotinib] (partner 1 µM)
Outline: (§1)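 One day after seeding in 1536-well plates, lung cancer cell lines were dosed by pin tool. Dosing was either single-drug or a fixed anchor-drug dose plus five library-drug doses (not always all listed) in √10 steps. After 5 days, nuclei were stained in one fix-and-stain step and counted on 4× images, and relative viability is the nuclei count of treated wells over that of vehicle wells, given as the median of duplicate plates.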

[2] = compound: CCN(CCO)CCCC(C)Nc1ccnc2cc(Cl)ccc12 [Hydroxychloroquine] + C[C@]1(O)C[C@@H](c2nc(-c3ccc4ccc(-c5ccccc5)nc4c3)c3c(N)nccn32)C1 [Linsitinib] (partner 1 µM)
Outline: as §1

[3] = compound: CCN(CCO)CCCC(C)Nc1ccnc2cc(Cl)ccc12 [Hydroxychloroquine] + Cc1cc(Nc2cc(N3CCN(C)CC3)nc(Sc3ccc(NC(=O)C4CC4)cc3)n2)n[nH]1 [Tozasertib] (partner 0.1 µM)
Outline: as §1

[4] = compound: CCN(CCO)CCCC(C)Nc1ccnc2cc(Cl)ccc12 [Hydroxychloroquine] + COc1cccc2cc(-c3nc([C@H]4CC[C@H](C(=O)O)CC4)n4ncnc(N)c34)[nH]c12 [OSI-027] (partner 0.5 µM)
Outline: as §1

| Cell Line | relative viability ([1]; first compound 0.5 µM) | relative viability ([1]; first compound 1.581 µM) | relative viability ([1]; first compound 5 µM) | relative viability ([1]; first compound 15.81 µM) | relative viability ([1]; first compound 50 µM) | relative viability ([2]; first compound 0.5 µM) | relative viability ([2]; first compound 1.581 µM) | relative viability ([2]; first compound 5 µM) | relative viability ([2]; first compound 15.81 µM) | relative viability ([2]; first compound 50 µM) | relative viability ([3]; first compound 0.5 µM) | relative viability ([3]; first compound 1.581 µM) | relative viability ([3]; first compound 5 µM) | relative viability ([3]; first compound 15.81 µM) | relative viability ([3]; first compound 50 µM) | relative viability ([4]; first compound 0.5 µM) | relative viability ([4]; first compound 1.581 µM) | relative viability ([4]; first compound 5 µM) | relative viability ([4]; first compound 15.81 µM) | relative viability ([4]; first compound 50 µM) |
| --- | --- | --- | --- | --- | --- | --- | --- | --- | --- | --- | --- | --- | --- | --- | --- | --- | --- | --- | --- | --- |
| PC-14 | 0.856 | 0.917 | 0.919 | 0.907 | 0.916 | 0.889 | 1.07 | 0.995 | 1.03 | 0.97 | 0.58 | 0.537 | 0.54 | 0.544 | 0.55 | 0.958 | 0.586 | 0.872 | 0.861 | 0.927 |
| UMC-11 | 0.586 | 0.573 | 0.69 | 0.664 | 0.846 | 0.928 | 1.02 | 0.986 | 1.1 | 1.22 | 0.191 | 0.188 | 0.217 | 0.393 | 0.196 | – | 0.402 | 0.486 | 0.403 | 0.538 |
| PC-3 [JPC-3] | 0.999 | 1 | 1.06 | 0.98 | 1.16 | 0.983 | 0.948 | 0.923 | 1.01 | 0.979 | 0.859 | 0.959 | 0.973 | 0.948 | 0.901 | 0.743 | 0.642 | 0.82 | 0.745 | 0.924 |
| LK-2 | 0.246 | – | 0.198 | 0.181 | 0.197 | 0.473 | 0.438 | 0.843 | 0.607 | 0.696 | 0.176 | 0.167 | – | 0.176 | 0.154 | 0.201 | 0.198 | 0.155 | 0.206 | 0.208 |
| COR-L23 | 0.786 | 0.573 | 0.895 | 0.868 | 0.86 | 0.989 | 0.872 | 0.947 | 0.997 | 1.02 | 0.191 | 0.218 | 0.267 | 0.209 | 0.225 | 0.756 | 0.809 | 0.822 | 0.91 | 0.85 |
| NCI-H1944 | 1.07 | 1.06 | 1.07 | 1.04 | 1.19 | 1.12 | 1.09 | 1.16 | 1.11 | 1.19 | 0.254 | 0.249 | 0.232 | 0.264 | 0.271 | 0.445 | 0.33 | 0.418 | 0.337 | 0.453 |
| HCC-78 | 0.349 | 0.325 | 0.338 | 0.314 | 0.358 | 0.49 | 0.728 | 0.304 | 0.516 | 0.455 | 0.438 | 0.459 | 0.478 | 0.305 | 0.466 | 0.377 | 0.376 | 0.366 | 0.323 | 0.349 |
| NCI-H2405 | 0.856 | 0.813 | 0.867 | 0.88 | 0.864 | 0.923 | 0.806 | 0.92 | 0.98 | 0.968 | 0.769 | 0.691 | 0.756 | 0.707 | 0.728 | 0.626 | 0.55 | 0.652 | 0.627 | 0.658 |
| SW 1573 | 0.782 | 0.839 | 0.872 | 0.76 | 0.753 | 0.698 | 0.625 | 0.67 | 0.74 | 0.674 | 0.217 | 0.203 | 0.167 | 0.188 | 0.147 | 0.591 | 0.524 | 0.674 | 0.649 | 0.826 |
| EMC-BAC-2 | 0.826 | 0.743 | 0.741 | 0.755 | 0.807 | 0.817 | 0.772 | 0.87 | 0.82 | 0.852 | 0.307 | 0.289 | 0.31 | 0.286 | 0.258 | 0.376 | 0.324 | 0.381 | 0.368 | 0.365 |
| NCI-H647 | 1.23 | 1.07 | 1.21 | 1.12 | 1.33 | 1.27 | 1.01 | 1.29 | 1.25 | 1.22 | 0.263 | 0.357 | 0.278 | 0.346 | 0.272 | 0.703 | 0.737 | 0.683 | 0.893 | 0.607 |
| LCLC-97TM1 | 0.379 | 0.259 | 0.4 | 0.449 | 0.481 | 0.2 | 0.189 | 0.215 | 0.172 | 0.173 | 0.282 | 0.254 | 0.229 | 0.509 | 0.26 | 0.614 | 0.465 | 0.569 | 0.563 | 0.622 |
| H3255 | 0.848 | 0.979 | 0.716 | 0.841 | 0.985 | 0.946 | 0.999 | 0.976 | 0.944 | 0.982 | 0.687 | 0.558 | 0.682 | 0.796 | 0.677 | 0.653 | 0.524 | 0.569 | 0.6 | 0.665 |
| LXF-289 | 0.838 | 0.773 | 0.803 | 0.822 | 0.853 | 0.986 | 0.985 | 0.992 | 0.995 | 1 | 0.172 | 0.17 | 0.2 | 0.176 | 0.193 | 0.78 | 0.77 | 0.751 | 0.781 | 0.792 |
| NCI-H441 | 0.624 | 0.824 | 0.92 | 0.734 | 0.663 | 0.561 | 0.497 | 0.627 | 0.664 | 0.699 | 0.759 | 0.578 | 0.61 | 0.879 | 0.591 | 0.749 | 0.443 | 0.579 | 0.669 | 0.584 |
| LC-2-ad | 0.44 | 0.426 | – | 0.473 | 0.547 | 0.92 | 0.782 | 0.93 | 0.863 | 0.818 | 0.447 | 0.478 | 0.415 | 0.463 | 0.455 | 0.953 | 0.793 | 0.853 | 0.805 | 0.868 |
| SK-MES-1 | 0.933 | 0.955 | 1.13 | 1.1 | 1.03 | 1.1 | 1.09 | 1.12 | 1.16 | 1.03 | 1.06 | 0.943 | 1.02 | 1.02 | 0.94 | 0.623 | 0.381 | 0.712 | 0.67 | 0.589 |
| A-427 | 0.935 | 0.869 | 0.94 | 0.838 | 0.973 | 1.13 | 1.05 | 1.13 | 1.09 | 1.16 | 0.207 | 0.172 | 0.2 | 0.207 | 0.232 | 0.486 | 0.308 | 0.387 | 0.412 | 0.424 |
| NCI-H322M | 0.996 | 0.922 | 0.894 | 0.927 | 1.02 | 0.891 | 1.06 | 0.961 | 0.945 | 0.972 | 0.506 | 0.478 | 0.484 | 0.547 | 0.49 | 0.557 | 0.535 | 0.634 | 0.519 | 0.609 |
| HCC-366 | 0.698 | 0.607 | 0.402 | 0.514 | 0.612 | 0.573 | 0.769 | 0.613 | 0.627 | 0.796 | 0.109 | 0.132 | 0.138 | 0.0907 | 0.144 | 0.896 | 0.932 | 0.673 | 0.862 | 1.05 |
| NCI-H1975 | 1.05 | 1.08 | 0.926 | 1.06 | 1.15 | 0.938 | 0.949 | 0.92 | 1.04 | 1.06 | 0.84 | 0.695 | 0.856 | 0.858 | 0.847 | 0.846 | 0.74 | 0.711 | 0.868 | 0.991 |
| NCI-H1437 | 0.824 | 0.985 | 0.963 | 0.97 | 1.03 | 0.904 | 1.07 | 1.18 | 1.16 | 1.05 | 0.395 | 0.42 | 0.426 | 0.438 | 0.427 | 0.813 | 1.02 | 0.859 | 0.949 | 0.909 |
| NCI-H2009 | 1.02 | 1 | 1.06 | 1.05 | 1.08 | 1.2 | 1.2 | 1.28 | 1.23 | 1.14 | 0.819 | 0.745 | 0.784 | 0.739 | 0.726 | 0.632 | 0.616 | 0.651 | 0.658 | 0.644 |
| NCI-H1651 | 0.926 | 0.884 | 0.83 | 0.853 | 0.911 | 0.909 | 1.1 | 0.975 | 1.14 | 0.963 | 0.845 | 0.62 | 0.762 | 0.65 | 0.714 | 0.659 | 0.69 | 0.677 | 0.786 | 0.781 |
| LCLC-103H | 1.03 | 1.01 | 0.951 | 1.04 | 1.14 | 1.16 | 1.08 | 1.07 | 1.01 | 1.16 | 0.433 | 0.404 | 0.541 | 0.507 | 0.56 | 0.482 | 0.488 | 0.547 | 0.465 | 0.562 |
| NCI-H1666 | 0.872 | 1.11 | 0.948 | 0.837 | 1.14 | 0.764 | 0.773 | 0.771 | 0.813 | 0.724 | 0.612 | 0.557 | 0.658 | 0.636 | 0.552 | 0.816 | 0.81 | 0.834 | 0.82 | 0.808 |
| NCI-H1734 | 0.652 | 0.559 | 0.741 | 0.582 | 0.716 | 0.817 | 0.748 | 0.914 | 0.894 | 0.903 | 0.276 | 0.297 | 0.274 | 0.245 | 0.31 | 0.555 | 0.526 | 0.581 | 0.606 | 0.677 |
